{"source": "patent US4740498A", "about": "“Fibronectin preparations” (Green Cross Corporation, priority 1984, dated 1988)", "system": "corneal epithelium of rabbits", "assay": "Therapeutic effect in model of corneal disturbance (refrigeration trauma on the corneal epithelium)", "type": "in vivo", "settings": "400 μg/ml into the eyes, FN = eye drops of Example 2, albumin = control", "experimental": "The therapeutic effect of the FN preparations of the present invention was examined using a model of corneal disturbance in rabbits. The model was prepared by applying liquid nitrogen to the eyes of rabbits to cause refrigeration trauma on the corneal epithelium. The FN eye drops prepared in Example 2 were administered into the eyes thus suffering from corneal disturbance at a dose of 400 μg-FN/ml, and the wound surface area was measured with the passage of time. As a control, 400 μg/ml of albumin was used."}
{"substance": "Albumin", "values": [{"measurement": "Wound Surface Area, 0 Day", "setting": "0 Day", "result": 45, "unit": "mm^2"}, {"measurement": "Wound Surface Area, 1 Day", "setting": "1 Day", "result": 31, "unit": "mm^2"}, {"measurement": "Wound Surface Area, 2 Days", "setting": "2 Days", "result": 33, "unit": "mm^2"}, {"measurement": "Wound Surface Area, 3 Days", "setting": "3 Days", "result": 25, "unit": "mm^2"}, {"measurement": "Wound Surface Area, 4 Days", "setting": "4 Days", "result": 14, "unit": "mm^2"}]}
